{"source": "the NIST ThermoML archive (doi:10.1016/j.jct.2015.05.024)", "assay": "xn = mol fraction of the nth substance listed", "conditions": "100 kPa, Liquid; for mass density: Vibrating tube method; for speed of sound: 288.15 K, Frequency=5 MHz, Pulse-echo method", "note": "Numbers after ± are expanded uncertainties."}
{"smiles": "OCCOCCOCCO", "note": "[triethylene glycol] + O", "values": [{"measurement": "mass density", "setting": "278.15 K, x1 = 0.0107", "value": "1013.31 ± 0.26", "unit": "kg/m3"}, {"measurement": "mass density", "setting": "278.15 K, x1 = 0.02047", "value": "1024.39 ± 0.23", "unit": "kg/m3"}, {"measurement": "mass density", "setting": "278.15 K, x1 = 0.03972", "value": "1043.4 ± 0.22", "unit": "kg/m3"}, {"measurement": "mass density", "setting": "278.15 K, x1 = 0.04979", "value": "1051.97 ± 0.19", "unit": "kg/m3"}, {"measurement": "mass density", "setting": "278.15 K, x1 = 0.06996", "value": "1066.64 ± 0.17", "unit": "kg/m3"}, {"measurement": "mass density", "setting": "278.15 K, x1 = 0.09424", "value": "1080.57 ± 0.15", "unit": "kg/m3"}, {"measurement": "mass density", "setting": "278.15 K, x1 = 0.1481", "value": "1100.99 ± 0.14", "unit": "kg/m3"}, {"measurement": "mass density", "setting": "278.15 K, x1 = 0.2006", "value": "1112.25 ± 0.14", "unit": "kg/m3"}, {"measurement": "mass density", "setting": "278.15 K, x1 = 0.2502", "value": "1118.67 ± 0.15", "unit": "kg/m3"}, {"measurement": "mass density", "setting": "278.15 K, x1 = 0.2988", "value": "1122.73 ± 0.15", "unit": "kg/m3"}, {"measurement": "mass density", "setting": "278.15 K, x1 = 0.3492", "value": "1125.61 ± 0.16", "unit": "kg/m3"}, {"measurement": "mass density", "setting": "278.15 K, x1 = 0.3925", "value": "1127.4 ± 0.17", "unit": "kg/m3"}, {"measurement": "mass density", "setting": "278.15 K, x1 = 0.4502", "value": "1129.18 ± 0.18", "unit": "kg/m3"}, {"measurement": "mass density", "setting": "278.15 K, x1 = 0.4877", "value": "1130.08 ± 0.18", "unit": "kg/m3"}, {"measurement": "mass density", "setting": "278.15 K, x1 = 0.5004", "value": "1130.35 ± 0.19", "unit": "kg/m3"}, {"measurement": "mass density", "setting": "278.15 K, x1 = 0.5739", "value": "1131.64 ± 0.2", "unit": "kg/m3"}, {"measurement": "mass density", "setting": "278.15 K, x1 = 0.58", "value": "1131.73 ± 0.2", "unit": "kg/m3"}, {"measurement": "mass density", "setting": "278.15 K, x1 = 0.6465", "value": "1132.58 ± 0.22", "unit": "kg/m3"}, {"measurement": "mass density", "setting": "278.15 K, x1 = 0.651", "value": "1132.63 ± 0.22", "unit": "kg/m3"}, {"measurement": "mass density", "setting": "278.15 K, x1 = 0.7008", "value": "1133.14 ± 0.23", "unit": "kg/m3"}, {"measurement": "mass density", "setting": "278.15 K, x1 = 0.7471", "value": "1133.54 ± 0.24", "unit": "kg/m3"}, {"measurement": "mass density", "setting": "278.15 K, x1 = 0.7677", "value": "1133.7 ± 0.25", "unit": "kg/m3"}, {"measurement": "mass density", "setting": "278.15 K, x1 = 0.82", "value": "1134.08 ± 0.27", "unit": "kg/m3"}, {"measurement": "mass density", "setting": "278.15 K, x1 = 0.8623", "value": "1134.35 ± 0.28", "unit": "kg/m3"}, {"measurement": "mass density", "setting": "278.15 K, x1 = 0.8792", "value": "1134.45 ± 0.29", "unit": "kg/m3"}, {"measurement": "mass density", "setting": "278.15 K, x1 = 0.8975", "value": "1134.56 ± 0.3", "unit": "kg/m3"}, {"measurement": "mass density", "setting": "278.15 K, x1 = 0.9203", "value": "1134.69 ± 0.31", "unit": "kg/m3"}, {"measurement": "mass density", "setting": "278.15 K, x1 = 0.9514", "value": "1134.86 ± 0.32", "unit": "kg/m3"}, {"measurement": "mass density", "setting": "278.15 K, x1 = 0.9692", "value": "1134.96 ± 0.33", "unit": "kg/m3"}, {"measurement": "mass density", "setting": "278.15 K, x1 = 1", "value": "1135.14 ± 0.34", "unit": "kg/m3"}, {"measurement": "mass density", "setting": "283.15 K, x1 = 0.0107", "value": "1012.65 ± 0.26", "unit": "kg/m3"}, {"measurement": "mass density", "setting": "283.15 K, x1 = 0.02047", "value": "1023.4 ± 0.23", "unit": "kg/m3"}, {"measurement": "mass density", "setting": "283.15 K, x1 = 0.03972", "value": "1041.83 ± 0.22", "unit": "kg/m3"}, {"measurement": "mass density", "setting": "283.15 K, x1 = 0.04979", "value": "1050.13 ± 0.19", "unit": "kg/m3"}, {"measurement": "mass density", "setting": "283.15 K, x1 = 0.06996", "value": "1064.35 ± 0.17", "unit": "kg/m3"}, {"measurement": "mass density", "setting": "283.15 K, x1 = 0.09424", "value": "1077.85 ± 0.15", "unit": "kg/m3"}, {"measurement": "mass density", "setting": "283.15 K, x1 = 0.1481", "value": "1097.71 ± 0.14", "unit": "kg/m3"}, {"measurement": "mass density", "setting": "283.15 K, x1 = 0.2006", "value": "1108.7 ± 0.14", "unit": "kg/m3"}, {"measurement": "mass density", "setting": "283.15 K, x1 = 0.2502", "value": "1115 ± 0.15", "unit": "kg/m3"}, {"measurement": "mass density", "setting": "283.15 K, x1 = 0.2988", "value": "1119.01 ± 0.15", "unit": "kg/m3"}, {"measurement": "mass density", "setting": "283.15 K, x1 = 0.3492", "value": "1121.86 ± 0.16", "unit": "kg/m3"}, {"measurement": "mass density", "setting": "283.15 K, x1 = 0.3925", "value": "1123.64 ± 0.17", "unit": "kg/m3"}, {"measurement": "mass density", "setting": "283.15 K, x1 = 0.4502", "value": "1125.41 ± 0.18", "unit": "kg/m3"}, {"measurement": "mass density", "setting": "283.15 K, x1 = 0.4877", "value": "1126.3 ± 0.18", "unit": "kg/m3"}, {"measurement": "mass density", "setting": "283.15 K, x1 = 0.5004", "value": "1126.57 ± 0.18", "unit": "kg/m3"}, {"measurement": "mass density", "setting": "283.15 K, x1 = 0.5739", "value": "1127.85 ± 0.2", "unit": "kg/m3"}, {"measurement": "mass density", "setting": "283.15 K, x1 = 0.58", "value": "1127.94 ± 0.2", "unit": "kg/m3"}, {"measurement": "mass density", "setting": "283.15 K, x1 = 0.6465", "value": "1128.79 ± 0.22", "unit": "kg/m3"}, {"measurement": "mass density", "setting": "283.15 K, x1 = 0.651", "value": "1128.84 ± 0.22", "unit": "kg/m3"}, {"measurement": "mass density", "setting": "283.15 K, x1 = 0.7008", "value": "1129.34 ± 0.23", "unit": "kg/m3"}, {"measurement": "mass density", "setting": "283.15 K, x1 = 0.7471", "value": "1129.73 ± 0.24", "unit": "kg/m3"}, {"measurement": "mass density", "setting": "283.15 K, x1 = 0.7677", "value": "1129.89 ± 0.25", "unit": "kg/m3"}, {"measurement": "mass density", "setting": "283.15 K, x1 = 0.82", "value": "1130.26 ± 0.27", "unit": "kg/m3"}, {"measurement": "mass density", "setting": "283.15 K, x1 = 0.8623", "value": "1130.52 ± 0.28", "unit": "kg/m3"}, {"measurement": "mass density", "setting": "283.15 K, x1 = 0.8792", "value": "1130.62 ± 0.29", "unit": "kg/m3"}, {"measurement": "mass density", "setting": "283.15 K, x1 = 0.8975", "value": "1130.73 ± 0.29", "unit": "kg/m3"}, {"measurement": "mass density", "setting": "283.15 K, x1 = 0.9203", "value": "1130.86 ± 0.3", "unit": "kg/m3"}, {"measurement": "mass density", "setting": "283.15 K, x1 = 0.9514", "value": "1131.03 ± 0.32", "unit": "kg/m3"}, {"measurement": "mass density", "setting": "283.15 K, x1 = 0.9692", "value": "1131.12 ± 0.32", "unit": "kg/m3"}, {"measurement": "mass density", "setting": "283.15 K, x1 = 1", "value": "1131.29 ± 0.34", "unit": "kg/m3"}, {"measurement": "speed of sound", "setting": "x1 = 0.000601", "value": "1469.7 ± 1.4", "unit": "m/s"}, {"measurement": "speed of sound", "setting": "x1 = 0.001928", "value": "1476.6 ± 1.4", "unit": "m/s"}, {"measurement": "speed of sound", "setting": "x1 = 0.00461", "value": "1490.1 ± 1.4", "unit": "m/s"}, {"measurement": "speed of sound", "setting": "x1 = 0.008532", "value": "1508.9 ± 1.4", "unit": "m/s"}, {"measurement": "speed of sound", "setting": "x1 = 0.01366", "value": "1532 ± 1.3", "unit": "m/s"}, {"measurement": "speed of sound", "setting": "x1 = 0.01989", "value": "1557.7 ± 1.3", "unit": "m/s"}, {"measurement": "speed of sound", "setting": "x1 = 0.02548", "value": "1578.7 ± 1.2", "unit": "m/s"}, {"measurement": "speed of sound", "setting": "x1 = 0.03449", "value": "1609.1 ± 1.2", "unit": "m/s"}, {"measurement": "speed of sound", "setting": "x1 = 0.04517", "value": "1639.9 ± 1.2", "unit": "m/s"}, {"measurement": "speed of sound", "setting": "x1 = 0.05131", "value": "1655.2 ± 1.2", "unit": "m/s"}, {"measurement": "speed of sound", "setting": "x1 = 0.05713", "value": "1668.3 ± 1.1", "unit": "m/s"}, {"measurement": "speed of sound", "setting": "x1 = 0.06261", "value": "1679.5 ± 1.1", "unit": "m/s"}, {"measurement": "speed of sound", "setting": "x1 = 0.0692", "value": "1691.5 ± 1.1", "unit": "m/s"}, {"measurement": "speed of sound", "setting": "x1 = 0.07424", "value": "1699.8 ± 1.1", "unit": "m/s"}, {"measurement": "speed of sound", "setting": "x1 = 0.08016", "value": "1708.5 ± 1.1", "unit": "m/s"}, {"measurement": "speed of sound", "setting": "x1 = 0.08433", "value": "1714.1 ± 1.1", "unit": "m/s"}, {"measurement": "speed of sound", "setting": "x1 = 0.08832", "value": "1719 ± 1.1", "unit": "m/s"}, {"measurement": "speed of sound", "setting": "x1 = 0.09298", "value": "1724.2 ± 1.1", "unit": "m/s"}, {"measurement": "speed of sound", "setting": "x1 = 0.09657", "value": "1727.8 ± 1.1", "unit": "m/s"}, {"measurement": "speed of sound", "setting": "x1 = 0.1007", "value": "1731.7 ± 1.1", "unit": "m/s"}, {"measurement": "speed of sound", "setting": "x1 = 0.1021", "value": "1732.9 ± 1.1", "unit": "m/s"}]}
